Reference: article PMC7395068, “The evolution of strategies to minimise the risk of human drug-induced liver injury (DILI) in drug discovery and development” (Archives of Toxicology, 2020)
Where two headings read alike, the source gives them in different places.

Key:
[1] = test system: HepG2; parameters: method as in Albrecht 2019; conditions: In vitro Assay; ref Albrecht 2019; cited from earlier work
[2] = cited from earlier work
[3] = test system: primary human hepatocytes, NIH3T3 fibroblasts, BSEP, CYP3A4; conditions: cited from earlier work
[4] = test system: human hepatocytes; conditions: cited from earlier work; for Structural based (HCI): In vitro Assay, ref Xu 2008
[5] = test system: THLE or HepG2 cells, isolated mitochondria, BSEP; conditions: cited from earlier work
[6] = cited from earlier work; remark: listed apart in the source
[7] = test system: PHH; conditions: In vitro Assay; ref Albrecht 2019; cited from earlier work
[8] = ref Chen 2011; cited from earlier work
[9] = Plasma free fraction (fu) and unbound Cmax (Cmax,u); assay type: in vitro ADME, human; conditions: unbound plasma Cmax
Procedure: The prediction of DILI severity was evaluated further using the 3D combined HCI assays using plasma-free fraction. The majority of fu values were obtained from literature, when unavailable in-house prediction was utilised. Unbound plasma Cmax concentrations (Cmax,u) were derived by multiplying total plasma Cmax with the corresponding free fraction (fu) for each compound.

[10] = test system: hLiMTs
[11] = test system: HepaRG spheroids
Procedure: (§1) 3D spheroid models consisting of either primary human hepatocytes with non-parenchymal cells (hLiMT’s) or HepaRG cells (HepaRG spheroids) were assessed for size (MS), oxidative stress (OS), MMP, mitochondrial mass (MM), GSH and cellular ATP content following drug exposure. Fluorescent images are acquired using the confocal mode of an ArrayScan™ XTI HCI reader (ThermoScientific) following which cellular ATP was measured using 3D CellTiter-Glo (Promega).

[12] = test system: HepG2 cells; conditions: cited from earlier work
[13] = test system: HepG2 cells; conditions: cited from earlier work; remark: listed apart in the source
[14] = test system: PHH; conditions: cited from earlier work
[15] = test system: hLiMTs; conditions: cited from earlier work
[16] = test system: PHH spheroids; conditions: cited from earlier work; for hLiMTs ATP <20 x Cmax: In vitro Assay, ref Vorrink 2018
[17] = read-out: Human plasma Cmax; total plasma Cmax.tot, median of 9 literature references; cited from earlier work
[18] = plasma free fraction; cited from earlier work
[19] = test system: HepG2 cells, primary human hepatocytes; conditions: In vitro Assay; ref Garside 2014; cited from earlier work
[20] = test system: hLiMTs; assay: Combined HCI (HCS) and cellular ATP 3D assay in hLiMTs
[21] = test system: HepaRG spheroids; assay: Combined HCI (HCS) and cellular ATP 3D assay in HepaRG spheroids; conditions: HepaRG; for AC50 / minimal effective concentration: Homo sapiens
Procedure: as §1

[22] = test system: THLE-Null and THLE-3A4 cells; conditions: In vitro Assay; ref Gustafsson 2014; cited from earlier work
[23] = test system: rBsep; conditions: In vitro Assay; ref Dawson 2012; cited from earlier work
[24] = test system: HepG2 C3A spheroid, BSEP, Glu/Gal in HepG2 cells, bioactivation; conditions: cited from earlier work
[25] = test system: isolated mouse liver mitochondria; conditions: In vitro Assay; ref Porceddu 2012; cited from earlier work
[26] = In vitro Assay, ref Schadt 2015
[27] = In vitro Assay, ref Persson 2013
[28] = In vitro Assay, ref Proctor 2017

Clc1cccc(Cl)c1N=C1NCCN1 [clonidine]
Cytotoxicity HepG2 48 hrs [1]: -VE
DILI +VE (5-8), DILI -VE (-4) ([2]; ref Chen 2016): -VE
DILI severity category ([2]; ref Chen 2016): Ambiguous DILI-concern
Cellular toxicity (3T3 cells) [3, 26]: -VE
Combined Assay [3, 26]: -VE
GSH adduct HML [3, 26]: -VE
Hepatocyte cellular toxicity [3, 26]: -VE
MitoTox 3T3 [3, 26]: -VE
TDI CYP3A4 [3, 26]: -VE
hBSEP inhibition [3, 26]: -VE
Structural based (HCI) [4]: -VE
Partition Hybrid HRM Score ([5]; In vitro Assay, ref Aleo 2019): -VE
Ro2 Hybrid HRM Score ([5]; In vitro Assay, ref Aleo 2019): -VE
In vivo DILI ([6]; ref Albrecht 2019): -VE
In vivo DILI ([6]; ref Schadt 2015): -VE
In vivo DILI ([6]; ref Xu 2008): +VE
Cytotoxicity PHH 48 hrs [7]: -VE
DILI Score (FDA) (1-8) [8]: 3

O=C1CN(/N=C/c2ccc(-c3ccc([N+](=O)[O-])cc3)o2)C(O)=N1 [dantrolene]
Human plasma Cmax,u [9]: 0.552 µM
DILI prediction hLiMTs (HCS-MEC) [10]: +VE (MEC < 25 × Cmax.tot cut-off)
DILI prediction HepaRG spheroids (HCS-MEC) [11]: +VE (MEC < 25 × Cmax.tot cut-off)
DILI severity category (Chen et al. [2016]) ([2]; LTKB DILIrank category, ref Chen et al. 2016): Most
DILI severity category (Chen 2016) ([2]; human DILI classification, LTKB DILIrank, ref Chen et al. 2016): Most
DILI severity category ([2]; human DILI severity, ref Chen et al.): Most
DILI +VE (5-8), DILI -VE (-4) ([2]; ref Chen 2016): +VE
DILI severity category ([2]; ref Chen 2016): vMost-DILI-Concern
Structural based (HCI) ([12]; In vitro Assay, ref O'Brien 2006): +VE
DILI in vitro assay prediction, O'Brien (2006) ([12]; Structural based (HCI), HepG2, ref O'Brien et al. 2006): +VE (lowest HCI endpoint IC50 (or in the absence of dose–response < 100 µM) < 30 × total human plasma exposure levels (Cmax.tot))
Cluser analysis [13, 27]: -VE
Structural based (HCI) [13, 27]: +VE
DILI in vitro assay prediction, Persson (2013) ([13]; Structural based (HCI), HepG2, ref Persson et al. 2013): -VE
Structural based (HCI) [4]: +VE
DILI in vitro assay prediction, Xu (2008) ([4]; Structural based (HCI), human hepatocytes, ref Xu et al. 2008): +VE
PHH/100uM, Proctor (2017) ([14]; 2D PHH, ATP, IC50 threshold 100 µM, ref Proctor et al. 2017): -VE
PHH ATP <100uM [14, 28]: -VE
hLiMTs ATP <100uM [15, 28]: -VE
hLiMTs/100uM, Proctor (2017) ([15]; hLiMTs, ATP, IC50 threshold 100 µM, ref Proctor et al. 2017): -VE
hLiMTs ATP <20 x Cmax [16]: +VE (IC20 < 20 × Cmax.tot cut-off)
DILI in vitro assay prediction, Vorrink (2018) ([16]; PHH spheroids, ATP, 14 days, IC20 < 20 × Cmax.tot, ref Vorrink et al. 2018): +VE (IC20 < 20 × Cmax.tot cut-off)
Cmax [17]: 3.95 µM
fu [18]: 0.140
Assigned DILI category ([6]; Chen et al. 2016 or literature alignment, ref Chen et al. 2016): 3
In vivo DILI ([6]; […]): +VE
In vivo DILI ([6]; ref Garside 2014): +VE
In vivo DILI ([6]; ref O'Brien 2006): +VE
In vivo DILI ([6]; ref Persson 2013): +VE
In vivo DILI ([6]; ref Proctor 2017): +VE
In vivo DILI ([6]; ref Vorrink 2018): +VE
In vivo DILI ([6]; ref Williams 2019): +VE
In vivo DILI ([6]; ref Xu 2008): +VE
Cluster 1-6 +VE Assay [19]: -VE
DILI Score (FDA) (1-8) [8]: 8
DILI prediction hLiMTs, HCI alone ([20]; HCS endpoints only, 25 × Cmax.tot cut-off): detection
AC50 ([20]; Homo sapiens, read-out: HCS endpoint AC50): 51 µM
minimal effective concentration ([20]; Homo sapiens, read-out: HCS endpoint MEC): 10.5 µM
DILI prediction hLiMTs, ATP alone ([20]; cellular ATP only, 25 × Cmax.tot cut-off): unpredicted
hLiMTs <25x Avg Cmax ATP ([20]; hLiMTs, ATP endpoint, cut-off <25x Avg Cmax): -ve
hLiMTs <100x Avg Cmaxu ATP ([20]; hLiMTs, ATP endpoint, cut-off <100x Avg Cmaxu): -ve
hLiMTs <25x Avg Cmax HCS ([20]; hLiMTs, HCS endpoints, cut-off <25x Avg Cmax): +ve
hLiMTs <100x Avg Cmaxu HCS ([20]; hLiMTs, HCS endpoints, cut-off <100x Avg Cmaxu): +ve (<100x Avg Cmaxu)
hLiMTs <25x Avg Cmax All ([20]; hLiMTs, all endpoints (ATP and HCS), cut-off <25x Avg Cmax): +ve
hLiMTs Cmax max All ([20]; hLiMTs, all endpoints, Cmax max used): +ve
hLiMTs Cmax min All ([20]; hLiMTs, all endpoints, Cmax min used): -ve
hLiMTs <10 uM All ([20]; hLiMTs, all endpoints, cut-off <10 uM): -ve
hLiMTs <100x Avg Cmaxu All ([20]; hLiMTs, all endpoints, cut-off <100x Avg Cmaxu): +ve (<100x Avg Cmaxu)
HepaRG <25x Avg Cmax ATP ([21]; ATP endpoint, cut-off <25x Avg Cmax): +ve
HepaRG <100x Avg Cmaxu ATP ([21]; ATP endpoint, cut-off <100x Avg Cmaxu): +ve (<100x Avg Cmaxu)
HepaRG <25x Avg Cmax HCS ([21]; HCS endpoints, cut-off <25x Avg Cmax): +ve
HepaRG <100x Avg Cmaxu HCS ([21]; HCS endpoints, cut-off <100x Avg Cmaxu): +ve (<100x Avg Cmaxu)
HepaRG <25x Avg Cmax All ([21]; all endpoints (ATP and HCS), cut-off <25x Avg Cmax): +ve
HepaRG Cmax max All ([21]; all endpoints, Cmax max used): +ve
HepaRG Cmax min All ([21]; all endpoints, Cmax min used): -ve
HepaRG <10 uM All ([21]; all endpoints, cut-off <10 uM): -ve
HepaRG <100x Avg Cmaxu All ([21]; all endpoints, cut-off <100x Avg Cmaxu): +ve (<100x Avg Cmaxu)
AC50 ([21]; read-out: ATP endpoint AC50): 100 µM
minimal effective concentration ([21]; read-out: ATP endpoint MEC): 53.2 µM
AC50 ([21]; read-out: HCS endpoint AC50): 174 µM
minimal effective concentration ([21]; read-out: HCS endpoint MEC): 14.5 µM

OCCOCCN1CCN(C(c2ccccc2)c2ccc(Cl)cc2)CC1 (stereo not shown) [hydroxyzine]
Cytotoxicity HepG2 48 hrs [1]: -VE
DILI +VE (5-8), DILI -VE (-4) ([2]; ref Chen 2016): -VE
DILI severity category ([2]; ref Chen 2016): vNo-DILI-Concern
Partition Hybrid HRM Score ([5]; In vitro Assay, ref Aleo 2019): +VE
Ro2 Hybrid HRM Score ([5]; In vitro Assay, ref Aleo 2019): +VE
In vivo DILI ([6]; […]): -VE
In vivo DILI ([6]; ref Albrecht 2019): -VE
In vivo DILI ([6]; ref Aleo 2019): -VE
Cytotoxicity PHH 48 hrs [7]: -VE

C[C@H]1COc2c(N3CCN(C)CC3)c(F)cc3c(=O)c(C(=O)O)cn1c23 [levofloxacin]
Cytotoxicity HepG2 48 hrs [1]: +VE
DILI +VE (5-8), DILI -VE (-4) ([2]; in vivo): +VE
DILI severity category ([2]; in vivo): vMost-DILI-Concern
Cellular toxicity (3T3 cells) [3]: -VE
Combined Assay [3]: -VE
GSH adduct HML [3]: -VE
Hepatocyte cellular toxicity [3]: -VE
MitoTox 3T3 [3]: -VE
TDI CYP3A4 [3]: -VE
hBSEP inhibition [3]: -VE
Structural based (HCI) [4]: -VE
Cytotoxicity PHH 48 hrs [7]: +VE
THLE-Null [22]: -VE
Inhibition of rBsep cutoff<1& cmax u>.2 [23]: -VE
Inhibition of rBsep cutoff<3 [23]: -VE

CS(=O)(=O)Nc1ccc([N+](=O)[O-])cc1Oc1ccccc1 [nimesulide]
Cytotoxicity HepG2 48 hrs [1]: +VE
DILI +VE (5-8), DILI -VE (-4) ([2]; in vivo): +VE
DILI severity category ([2]; in vivo): vMost-DILI-Concern
Structural based (HCI) [12]: +VE
Ro2 Hybrid HRM Score [5]: +VE
PHH ATP <100uM [14]: +VE (key: +VE: IC50 threshold of 100 µM)
hLiMTs ATP <100uM [15]: +VE (key: +VE: IC50 threshold of 100 µM)
hLiMTs ATP <20 x Cmax [16]: +VE (IC20 < 20 × Cmax.tot cut-off)
Bayesian Machine Learning [24]: +VE
In vivo DILI ([6]; in vivo): +VE
Cytotoxicity PHH 48 hrs [7]: +VE
in vitro data EC2<=1x Cmax [25]: +VE

CC(CN1c2ccccc2Sc2ccccc21)N(C)C (stereo not shown) [promethazine]
Cytotoxicity HepG2 48 hrs [1]: -VE
DILI +VE (5-8), DILI -VE (-4) ([2]; ref Chen 2016): +VE
DILI severity category ([2]; ref Chen 2016): vLess-DILI-Concern
Cellular toxicity (3T3 cells) [3, 26]: +VE
Combined Assay [3, 26]: -VE
GSH adduct HML [3, 26]: +VE
Hepatocyte cellular toxicity [3, 26]: -VE
MitoTox 3T3 [3, 26]: -VE
TDI CYP3A4 [3, 26]: -VE
hBSEP inhibition [3, 26]: -VE
Structural based (HCI) [4]: -VE
hLiMTs ATP <20 x Cmax [16]: -VE
In vivo DILI ([6]; ref Albrecht 2019): -VE
In vivo DILI ([6]; ref Schadt 2015): -VE
In vivo DILI ([6]; ref Vorrink 2018): -VE
In vivo DILI ([6]; ref Xu 2008): -VE
Cytotoxicity PHH 48 hrs [7]: -VE

CC(C)NCC(O)COc1cccc2ccccc12 (stereo not shown) [propranolol, reference compound]
Cytotoxicity HepG2 48 hrs [1]: -VE
Ro2 Hybrid HRM Score ([5]; In vitro Assay, ref Aleo 2019): -VE
Partition Hybrid HRM Score [5]: +VE
response of PHH spheroids at 5 × Cmax.tot ([16]; ATP, 14 days, not positive at higher concentrations, ref Vorrink et al. 2018): positive
hLiMTs ATP <20 x Cmax [16]: -VE
Cytotoxicity PHH 48 hrs [7]: -VE
Inhibition of rBsep cutoff<1& cmax u>.2 [23]: -VE
Inhibition of rBsep cutoff<3 [23]: -VE
